Test results from patent publication US20210045385A1, “PYRIDAZINONE-SUBSTITUTED KETOXIMES AS HERBICIDES” (FMC Corporation, priority 2018, published 2021).

Assays:
Assay type in all cases: in vivo
[1] = system: Italian ryegrass (Lolium mutiflorum); test: Test C postemergence, visual plant response rating
Method in brief: (§1)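 Seeds sown in a loam–sand blend got a directed preemergence soil spray; postemergence plants (2–10 cm, one- to two-leaf stage) were sprayed with compound in a non-phytotoxic solvent plus surfactant. Injury was scored visually against untreated controls after about 10 d in a greenhouse on a 0–100 scale (100 = complete control).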

[2] = system: pigweed (Amaranthus retroflexus); test: Test C postemergence, visual plant response rating
Method in brief: as §1

[3] = system: galium (catchweed bedstraw, Galium aparine); test: Test C postemergence, visual plant response rating
Method in brief: as §1

[4] = system: barnyardgrass (Echinochloa crus-galli); test: Test C postemergence, visual plant response rating
Method in brief: as §1

[5] = system: kochia (Bassia scoparia); test: Test C postemergence, visual plant response rating
Method in brief: as §1

[6] = system: foxtail, giant (giant foxtail, Setaria faberi); test: Test C postemergence, visual plant response rating
Method in brief: as §1

[7] = system: ragweed (common ragweed, Ambrosia artemisiifolia); test: Test C postemergence, visual plant response rating
Method in brief: as §1

[8] = system: corn (Zea mays); test: Test C postemergence, visual plant response rating
Method in brief: as §1

[9] = system: blackgrass (Alopecurus myosuroides); test: Test C postemergence, visual plant response rating
Method in brief: as §1

[10] = system: wheat (Triticum aestivum); test: Test C postemergence, visual plant response rating
Method in brief: as §1

[11] = system: Italian ryegrass (Lolium mutiflorum); test: Test C preemergence, visual plant response rating; conditions: Test C, 0 is no effect, 100 is complete control
Method in brief: as §1

[12] = system: pigweed (Amaranthus retroflexus); test: Test C preemergence, visual plant response rating; conditions: Test C, 0 is no effect, 100 is complete control
Method in brief: as §1

[13] = system: barnyardgrass (Echinochloa crus-galli); test: Test C preemergence, visual plant response rating; conditions: Test C, 0 is no effect, 100 is complete control
Method in brief: as §1

[14] = system: kochia (Bassia scoparia); test: Test C preemergence, visual plant response rating; conditions: Test C, 0 is no effect, 100 is complete control
Method in brief: as §1

[15] = system: foxtail, giant (giant foxtail, Setaria faberi); test: Test C preemergence, visual plant response rating; conditions: Test C, 0 is no effect, 100 is complete control
Method in brief: as §1

[16] = system: ragweed (common ragweed, Ambrosia artemisiifolia); test: Test C preemergence, visual plant response rating; conditions: Test C, 0 is no effect, 100 is complete control
Method in brief: as §1

[17] = system: barnyardgrass (Echinochloa crus-galli); test: Test D flooded paddy test, visual plant response rating; conditions: 250 g ai/ha, scale 0 to 100 (0 no effect, 100 complete control), 13 to 15 d
Method in brief: (§2)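 Greenhouse paddy assay scored on a 0–100 visual scale after 13 to 15 d, where 100 means complete control and a dash marks no result; dosing was into 3 cm floodwater over 2-leaf plants.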

[18] = system: sedge umbrella (small-flower umbrella sedge, Cyperus difformis); test: as above; conditions: 250 g ai/ha, scale 0 to 100 (0 no effect, 100 complete control), 13 to 15 d
Method in brief: as §2

[19] = system: rice (Oryza sativa); test: as above; conditions: 250 g ai/ha, scale 0 to 100 (0 no effect, 100 complete control), 13 to 15 d
Method in brief: as §2

[20] = system: duck salad (Heteranthera limosa); test: as above; conditions: 250 g ai/ha, scale 0 to 100 (0 no effect, 100 complete control), 13 to 15 d
Method in brief: as §2

[21] = Test C, postemergence, 125 g ai/ha

Structure (SMILES) | Ryegrass, Italian plant response rating (0 to 100 scale) ([1]; Postemergence, 31 g ai/ha) | Ryegrass, Italian plant response rating (0 to 100 scale) [1, 21] | Pigweed plant response rating (0 to 100 scale) ([2]; Postemergence, 31 g ai/ha) | Pigweed plant response rating (0 to 100 scale) [2, 21] | Galium plant response rating (0 to 100 scale) ([3]; Postemergence, 31 g ai/ha) | Galium plant response rating (0 to 100 scale) [3, 21] | Barnyardgrass plant response rating (0 to 100 scale) ([4]; Postemergence, 31 g ai/ha) | Barnyardgrass plant response rating (0 to 100 scale) [4, 21] | Kochia plant response rating (0 to 100 scale) ([5]; Postemergence, 31 g ai/ha) | Kochia plant response rating (0 to 100 scale) [5, 21] | Foxtail, Giant plant response rating (0 to 100 scale) ([6]; Postemergence, 31 g ai/ha) | Foxtail, Giant plant response rating (0 to 100 scale) [6, 21] | Ragweed plant response rating (0 to 100 scale) ([7]; Postemergence, 31 g ai/ha) | Ragweed plant response rating (0 to 100 scale) [7, 21] | Corn plant response rating (0 to 100 scale) ([8]; Postemergence, 31 g ai/ha) | Corn plant response rating (0 to 100 scale) [8, 21] | Blackgrass plant response rating (0 to 100 scale) ([9]; Postemergence, 31 g ai/ha) | Blackgrass plant response rating (0 to 100 scale) [9, 21] | Wheat plant response rating (0 to 100 scale) ([10]; Postemergence, 31 g ai/ha) | Wheat plant response rating (0 to 100 scale) [10, 21] | other results
CON=C(c1cc(F)cc(F)c1F)c1c(O)c(C)nn(C)c1=O [Compound 226] | 20 | 50 | 30 | 50 | 50 | 90 | 10 | 20 | 20 | 60 | 30 | 40 | 30 | 70 | 0 | 0 | 0 | 0 | 0 | 0 | Ryegrass, Italian plant response rating (0 to 100 scale) ([11]; 31 g ai/ha): 30; Ryegrass, Italian plant response rating (0 to 100 scale) ([11]; 125 g ai/ha): 70; Pigweed plant response rating (0 to 100 scale) ([12]; 31 g ai/ha): 30; Pigweed plant response rating (0 to 100 scale) ([12]; 125 g ai/ha): 70; Barnyardgrass plant response rating (0 to 100 scale) ([13]; 31 g ai/ha): 0; Barnyardgrass plant response rating (0 to 100 scale) ([13]; 125 g ai/ha): 0; Kochia plant response rating (0 to 100 scale) ([14]; 31 g ai/ha): 0; Kochia plant response rating (0 to 100 scale) ([14]; 125 g ai/ha): 40; Foxtail, Giant plant response rating (0 to 100 scale) ([15]; 31 g ai/ha): 10; Foxtail, Giant plant response rating (0 to 100 scale) ([15]; 125 g ai/ha): 10; Ragweed plant response rating (0 to 100 scale) ([16]; 31 g ai/ha): 30; Ragweed plant response rating (0 to 100 scale) ([16]; 125 g ai/ha): 70; Plant response rating, Barnyardgrass (Flood) [17]: 0; Plant response rating, Sedge, Umbrella (Flood) [18]: 0; Plant response rating, Rice (Flood) [19]: 0; Plant response rating, Ducksalad (Flood) [20]: 0
CCO/N=C(/c1c(O)cnn(C)c1=O)c1ccc(F)c2ccccc12 [Compound 270] | 0 | 10 | 80 | 50 | 50 | 80 | 0 | 0 | 20 | 30 | 0 | 10 | 20 | 70 | 0 | 0 | 0 | 30 | 0 | 0 | Ryegrass, Italian plant response rating (0 to 100 scale) ([11]; 31 g ai/ha): 0; Ryegrass, Italian plant response rating (0 to 100 scale) ([11]; 125 g ai/ha): 10; Pigweed plant response rating (0 to 100 scale) ([12]; 31 g ai/ha): 0; Pigweed plant response rating (0 to 100 scale) ([12]; 125 g ai/ha): 0; Barnyardgrass plant response rating (0 to 100 scale) ([13]; 31 g ai/ha): 0; Barnyardgrass plant response rating (0 to 100 scale) ([13]; 125 g ai/ha): 0; Kochia plant response rating (0 to 100 scale) ([14]; 31 g ai/ha): 0; Kochia plant response rating (0 to 100 scale) ([14]; 125 g ai/ha): 0; Foxtail, Giant plant response rating (0 to 100 scale) ([15]; 31 g ai/ha): 0; Foxtail, Giant plant response rating (0 to 100 scale) ([15]; 125 g ai/ha): 20; Ragweed plant response rating (0 to 100 scale) ([16]; 31 g ai/ha): 0; Ragweed plant response rating (0 to 100 scale) ([16]; 125 g ai/ha): 10; Plant response rating, Barnyardgrass (Flood) [17]: 0; Plant response rating, Sedge, Umbrella (Flood) [18]: 0; Plant response rating, Rice (Flood) [19]: 0; Plant response rating, Ducksalad (Flood) [20]: 0
CO/N=C(\c1cccc(/C=C/Cl)c1)c1c(O)c(C)nn(C)c1=O [Compound 286] | 0 | 0 | 20 | 50 | 50 | 60 | 0 | 30 | 10 | 30 | 0 | 20 | 30 | 50 | 0 | 0 | 20 | 0 | 30 | 30 | Ryegrass, Italian plant response rating (0 to 100 scale) ([11]; 31 g ai/ha): 0; Ryegrass, Italian plant response rating (0 to 100 scale) ([11]; 125 g ai/ha): 10; Pigweed plant response rating (0 to 100 scale) ([12]; 31 g ai/ha): 0; Pigweed plant response rating (0 to 100 scale) ([12]; 125 g ai/ha): 10; Barnyardgrass plant response rating (0 to 100 scale) ([13]; 31 g ai/ha): 60; Barnyardgrass plant response rating (0 to 100 scale) ([13]; 125 g ai/ha): 90; Kochia plant response rating (0 to 100 scale) ([14]; 31 g ai/ha): 0; Kochia plant response rating (0 to 100 scale) ([14]; 125 g ai/ha): 0; Foxtail, Giant plant response rating (0 to 100 scale) ([15]; 31 g ai/ha): 0; Foxtail, Giant plant response rating (0 to 100 scale) ([15]; 125 g ai/ha): 50; Ragweed plant response rating (0 to 100 scale) ([16]; 31 g ai/ha): 0; Ragweed plant response rating (0 to 100 scale) ([16]; 125 g ai/ha): 20; Plant response rating, Barnyardgrass (Flood) [17]: 0; Plant response rating, Sedge, Umbrella (Flood) [18]: 0; Plant response rating, Rice (Flood) [19]: 0; Plant response rating, Ducksalad (Flood) [20]: 0
